Patent EP4603105A1, “PHARMACEUTICAL COMPOSITION CONTAINING CYCLIC COMPOUND HAVING SELECTIVE KRAS INHIBITORY EFFECT AGAINST HRAS AND NRAS” (CHUGAI SEIYAKU KABUSHIKI KAISHA, priority 2022, dated 2024)
*1 amine or outer side, *2 acyl side, *3 side chain or, on linkers, in order; H or OH if unused. Where a SMILES comes first, the peptide text is derived from it. Bridges are numbered along the chain shown (N, C = ends). [ ]: non-standard residue; d: D form. The star is where a group is joined. hPhe(3,5-F2-4-CF3) = N[C@@H](CCc1cc(F)c(C(F)(F)F)c(F)c1)C(=O)O; hPhe(3-Cl-4-CF3) = N[C@@H](CCc1ccc(C(F)(F)F)c(Cl)c1)C(=O)O; NPrPhe(4-CF3) = CCCN[C@@H](Cc1ccc(C(F)(F)F)cc1)C(=O)O; NEtPhe(4-CF3) = CCN[C@@H](Cc1ccc(C(F)(F)F)cc1)C(=O)O; X13 = CCCN([C@@H](COC1CCC1)C(=O)[*:2])[*:1]; NMeGly(cPent) = CN[C@H](C(=O)O)C1CCCC1; NMeNva(3-Et) = CCC(CC)[C@H](NC)C(=O)O; αMeI = CC[C@H](C)[C@](C)(N)C(=O)O; NMeD = CN[C@@H](CC(=O)O)C(=O)O; NMeL = CN[C@@H](CC(C)C)C(=O)O; NMeNva = CCC[C@H](NC)C(=O)O; hPip = O=C(O)[C@@H]1CCCCCN1; Morpholide = C1CN(*)CCO1; NMeA = CN[C@@H](C)C(=O)O; Ac5c = NC1(C(=O)O)CCCC1; Aze = O=C(O)[C@@H]1CCN1; Ac4c = NC1(C(=O)O)CCC1; Sar = CNCC(=O)O

Experiments:
[1] = molecular target: GDP-bound NRAS wild-type protein (Homo sapiens, UniProt P01111); assay: Binding to NRAS by surface plasmon resonance (SPR), KD and KD ratio to KRAS
How it was run: (§1)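 Affinity is measured by surface plasmon resonance at 30°C against captured, GDP-loaded RAS carrying a biotinylated Avi tag. Compounds are titrated by single-cycle kinetics, and KD comes from a 1:1 fit.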

HRAS wild-type protein = HRAS wild-type protein (Homo sapiens, UniProt P01112); assay: Binding to HRAS by surface plasmon resonance (SPR), KD and KD ratio to KRAS
How it was run: as §1

[2] = tested on: human lung cancer strain NCI-H441; format: cell-based
How it was run: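 Readout: […] after the ATP-based reagent. Compound: serial dilutions in dimethyl sulfoxide.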

[3] = ratio of the KD value with respect to GDP-bound NRAS wild-type protein to the KD value with respect to KRAS
[4] = ratio of the KD value with respect to HRAS wild-type protein to the KD value with respect to KRAS
[5] = ratio of KD for GDP-bound NRAS wild-type protein to KD for KRAS
[6] = ratio of KD for HRAS wild-type protein to KD for KRAS
[7] = ratio of KD value for GDP-bound NRAS wild-type protein to KD value for KRAS (SPR)
[8] = ratio of KD value for HRAS wild-type protein to KD value for KRAS (SPR)

GDP-bound NRAS wild-type protein, sequence (P01111 whole entry): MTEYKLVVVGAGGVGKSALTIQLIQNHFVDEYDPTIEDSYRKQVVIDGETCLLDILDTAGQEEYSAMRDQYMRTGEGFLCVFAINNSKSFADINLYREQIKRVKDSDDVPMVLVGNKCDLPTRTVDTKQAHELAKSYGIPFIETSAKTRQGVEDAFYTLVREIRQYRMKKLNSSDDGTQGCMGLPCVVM
HRAS wild-type protein, sequence (P01112 whole entry): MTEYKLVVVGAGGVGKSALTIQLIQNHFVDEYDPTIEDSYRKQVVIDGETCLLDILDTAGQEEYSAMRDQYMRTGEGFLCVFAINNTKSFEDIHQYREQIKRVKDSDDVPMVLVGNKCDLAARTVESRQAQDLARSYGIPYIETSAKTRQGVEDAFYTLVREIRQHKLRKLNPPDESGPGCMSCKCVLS

Structure (SMILES) | NRAS /KRAS [1, 3] | HRAS /KRAS (HRAS wild-type protein; [4]) | IC50 [2] | NRAS /KRAS [1, 5] | HRAS /KRAS (HRAS wild-type protein; [6]) | NRAS /KRAS [1, 7] | HRAS /KRAS (HRAS wild-type protein; [8])
CCCN1C(=O)CN(C)C(=O)CN(C)C(=O)[C@H]([C@@H](C)CC)NC(=O)[C@H](CC(C)C)N(C)C(=O)C[C@@H](C(=O)N(C)C)N(C)C(=O)[C@H](C2CCCC2)N(C)C(=O)[C@](C)([C@@H](C)CC)NC(=O)[C@@H]2CCCN2C(=O)[C@H](CCc2cc(F)c(C(F)(F)F)c(F)c2)NC(=O)CN(C)C(=O)[C@@H]1Cc1ccc(C(F)(F)F)cc1 [PP0736] ([NMeL]I[Sar][Sar][NPrPhe(4-CF3)][Sar][hPhe(3,5-F2-4-CF3)]P[αMeI][NMeGly(cPent)][NMeD]-NMe2; lactam N-11) | B (a compound having 3 or more and less than 10 is denoted as B) | C (A compound having a KD ratio of 0.1 or more and less than 3 is denoted as C) | 130 nM |  |  |  | 
CCC[C@H]1C(=O)N[C@@H]([C@@H](C)CC)C(=O)N(C)[C@@H](C)C(=O)N2CC[C@H]2C(=O)N(CCC)[C@@H](Cc2ccc(C(F)(F)F)cc2)C(=O)N(C)CC(=O)N[C@@H](CCc2ccc(C(F)(F)F)c(Cl)c2)C(=O)N2CCC[C@H]2C(=O)NC2(CCCC2)C(=O)N(C)[C@@H](C2CCCC2)C(=O)N(C)[C@H](C(=O)N2CCOCC2)CC(=O)N1C [PP0193] ([NMeNva]I[NMeA][Aze][NPrPhe(4-CF3)][Sar][hPhe(3-Cl-4-CF3)]P[Ac5c][NMeGly(cPent)][NMeD]-Morpholide; lactam N-11) |  |  | 1.4 nM | C (A compound having a KD ratio of 0.1 or more and less than 3 is denoted as C) | C (A compound having a KD ratio of 0.1 or more and less than 3 is denoted as C) |  | 
CCC[C@H]1C(=O)N[C@@H]([C@@H](C)CC)C(=O)N2CCC[C@H]2C(=O)N(C)[C@H]2C/C=C\CCN(C2=O)[C@@H](Cc2ccc(C)cc2)C(=O)N(C)CC(=O)N[C@@H](CCc2ccc(C(F)(F)F)c(OC)c2)C(=O)N2C[C@H](OCC)C[C@H]2C(=O)N(C)C2(CCC2)C(=O)N(C)[C@@H](C2CCCC2)C(=O)N(C)[C@H](C(=O)N2CCCC2)CC(=O)N1C [PP3102] |  |  | 6.7 nM | A (a compound having 10 or more and less than 20 is denoted as A) | A (a compound having 10 or more and less than 20 is denoted as A) |  | 
CCO[C@@H]1C[C@H]2C(=O)NC3(CC(C)(C)C3)C(=O)N(C)[C@@H](C3CCCC3)C(=O)N(C)[C@H](C(=O)N(C)CC)CC(=O)N(C)[C@@H](CC(C)C)C(=O)N[C@@H]([C@@H](C)CC)C(=O)N(C)CC(=O)N(C)[C@H]3C/C=C\CCN(C3=O)[C@@H](Cc3ccc(C(F)F)cc3)C(=O)N(C)CC(=O)N[C@@H](CCc3ccc(C(F)(F)F)c(OC)c3)C(=O)N2C1 [PP2828] |  |  | 5 nM | A (a compound having 10 or more and less than 20 is denoted as A) | A (a compound having 10 or more and less than 20 is denoted as A) |  | 
CCCN1C(=O)C[C@@H](C(=O)N(C)C)N(C)C(=O)[C@H](C2CCCC2)N(C)C(=O)C2(CCC2)NC(=O)[C@@H]2C[C@@H](OCC)CN2C(=O)[C@H](CCc2cc(F)c(C(F)(F)F)c(F)c2)NC(=O)CN(C)C(=O)[C@H](Cc2ccc(C(F)(F)F)cc2)N2CC/C=C\C[C@@H](C2=O)N(C)C(=O)CNC(=O)[C@H]([C@@H](C)CC)NC(=O)[C@@H]1CC(C)C [PP1826] |  |  | 17.6 nM |  |  | A (a compound having 10 or more and less than 20 is denoted as A) | A (a compound having 10 or more and less than 20 is denoted as A)
CCO[C@@H]1C[C@H]2C(=O)NC3(CC(C)(C)C3)C(=O)N(C)[C@@H](C(CC)CC)C(=O)N(C)[C@H](C(=O)N(C)C)CC(=O)N(C)[C@@H](C(C)C)C(=O)N[C@@H]([C@@H](C)CC)C(=O)N(C)CC(=O)N(C)[C@H]3C/C=C\CCN(C3=O)[C@@H](Cc3ccc(C)cc3)C(=O)N(C)CC(=O)N[C@@H](CCc3ccc(Cl)c(Cl)c3)C(=O)N2C1 [PP2122] | AA (a compound having 20 or more is denoted as AA) | A (a compound having 10 or more and less than 20 is denoted as A) | 107 nM |  |  |  | 
CCCN1C(=O)CN(C)C(=O)CN(C)C(=O)[C@H]([C@@H](C)CC)NC(=O)[C@@H]2CCCCCN2C(=O)C[C@@H](C(=O)N2CCOCC2)N(C)C(=O)[C@H](C2CCCC2)N(C)C(=O)C2(CCCC2)NC(=O)[C@@H]2CCCN2C(=O)[C@H](CCc2ccc(C(F)(F)F)c(Cl)c2)NC(=O)CN(C)C(=O)[C@@H]1Cc1ccc(C(F)(F)F)cc1 [PP0247] ([hPip]I[Sar][Sar][NPrPhe(4-CF3)][Sar][hPhe(3-Cl-4-CF3)]P[Ac5c][NMeGly(cPent)][NMeD]-Morpholide; lactam N-11) |  |  | 41.3 nM | B (a compound having 3 or more and less than 10 is denoted as B) | C (A compound having a KD ratio of 0.1 or more and less than 3 is denoted as C) |  | 
CCCN1C(=O)CN(C)C(=O)CN(C)C(=O)[C@H]([C@@H](C)CC)NC(=O)[C@H](CC(C)C)N(C)C(=O)C[C@@H](C(=O)N2CCOCC2)N(C)C(=O)[C@H](C2CCCC2)N(C)C(=O)C2(CCC2)NC(=O)[C@@H]2CCCN2C(=O)[C@H](CCc2ccc(C(F)(F)F)c(Cl)c2)NC(=O)CN(C)C(=O)[C@@H]1COC1CCC1 [PP1816] ([NMeL]I[Sar][Sar][X13][Sar][hPhe(3-Cl-4-CF3)]P[Ac4c][NMeGly(cPent)][NMeD]-Morpholide; lactam N-11) |  |  | 63.8 nM |  |  | B (a compound having 3 or more and less than 10 is denoted as B) | C (A compound having a KD ratio of 0.1 or more and less than 3 is denoted as C)
CC[C@H](C)[C@@H]1NC(=O)[C@H](CC(C)C)N(C)C(=O)C[C@@H](C(=O)N2CCOCC2)N(C)C(=O)[C@H](C2CCCC2)N(C)C(=O)C2(CCCC2)NC(=O)[C@@H]2CCCN2C(=O)[C@H](CCc2cc(F)c(C(F)(F)F)c(F)c2)NC(=O)CN(C)C(=O)[C@H](Cc2ccc(C(F)(F)F)cc2)N2CCCCC[C@@H](C2=O)N(C)C(=O)[C@@H]2CCCN2C1=O [PP0485] | A (a compound having 10 or more and less than 20 is denoted as A) | B (a compound having 3 or more and less than 10 is denoted as B) | 1260 nM |  |  |  | 
CCO[C@@H]1C[C@H]2C(=O)NC3(CC(C)(C)C3)C(=O)N(C)[C@@H](C(CC)CC)C(=O)N(C)[C@H](C(=O)N(C)C)CC(=O)N(C)[C@@H](CC3CC3)C(=O)N[C@@H]([C@@H](C)CC)C(=O)N(C)CC(=O)N(C)[C@H]3C/C=C\CCN(C3=O)[C@@H](Cc3ccc(C(F)(F)F)cc3)C(=O)N(C)CC(=O)N[C@@H](CCc3cc(F)c(C(F)(F)F)c(F)c3)C(=O)N2C1 [PP2119] | A (a compound having 10 or more and less than 20 is denoted as A) | B (a compound having 3 or more and less than 10 is denoted as B) | 8.9 nM |  |  |  | 
CC[C@H](C)[C@@H]1NC(=O)[C@H](CC(C)C)N(C)C(=O)C[C@@H](C(=O)N2CCOCC2)N(C)C(=O)[C@H](C2CCCC2)N(C)C(=O)C2(CCCC2)NC(=O)[C@@H]2CCCN2C(=O)[C@H](CCc2ccc(C(F)(F)F)c(Cl)c2)NC(=O)CN(C)C(=O)[C@H](Cc2ccc(C(F)(F)F)cc2)N(CC)C(=O)[C@@H]2CCN2C(=O)[C@H](C)N(C)C1=O [PP0002] ([NMeL]I[NMeA][Aze][NEtPhe(4-CF3)][Sar][hPhe(3-Cl-4-CF3)]P[Ac5c][NMeGly(cPent)][NMeD]-Morpholide; lactam N-11) |  |  | 2.1 nM | C (A compound having a KD ratio of 0.1 or more and less than 3 is denoted as C) | C (A compound having a KD ratio of 0.1 or more and less than 3 is denoted as C) |  | 
CCCN1C(=O)CN(C)C(=O)CN(C)C(=O)[C@H]([C@@H](C)CC)NC(=O)[C@H](CC(C)C)N(C)C(=O)C[C@@H](C(=O)N(C)C)N(C)C(=O)[C@H](C(CC)CC)N(C)C(=O)C2(CCC2)NC(=O)[C@@H]2CCCN2C(=O)[C@H](CCc2ccc(C(F)(F)F)c(Cl)c2)NC(=O)CN(C)C(=O)[C@@H]1Cc1ccc(C(F)(F)F)cc1 [PP1960] ([NMeL]I[Sar][Sar][NPrPhe(4-CF3)][Sar][hPhe(3-Cl-4-CF3)]P[Ac4c][NMeNva(3-Et)][NMeD]-NMe2; lactam N-11) | B (a compound having 3 or more and less than 10 is denoted as B) | C (A compound having a KD ratio of 0.1 or more and less than 3 is denoted as C) | 6 nM |  |  |  | 
CCO[C@@H]1C[C@H]2C(=O)NC3(CC(C)(C)C3)C(=O)N(C)[C@@H](C3CCCC3)C(=O)N(C)[C@H](C(=O)N(C)CC)CC(=O)N(C)[C@H]3CCCC/C=C/c4ccc(cc4)C[C@@H](C(=O)N(C)CC(=O)N[C@@H](CCc4ccc(C(F)(F)F)c(OC)c4)C(=O)N2C1)N1CC/C=C\C[C@@H](C1=O)N(C)C(=O)CN(C)C(=O)[C@H]([C@@H](C)CC)NC3=O [PP1830] |  |  | 4.7 nM |  |  | A (a compound having 10 or more and less than 20 is denoted as A) | B (a compound having 3 or more and less than 10 is denoted as B)
CCO[C@@H]1C[C@H]2C(=O)NC3(CCCC3)C(=O)N(C)[C@@H](C3CCCC3)C(=O)N(C)[C@H](C(=O)N(C)C)CC(=O)N(C)[C@@H](CC(C)C)C(=O)N[C@@H]([C@@H](C)CC)C(=O)N(C)CC(=O)N(C)[C@H]3CC(C)=C(C)CN(C3=O)[C@@H](Cc3ccc(C(F)(F)F)cc3)C(=O)N(C)CC(=O)N[C@@H](CCc3cc(F)c(C(F)(F)F)c(F)c3)C(=O)N2C1 [PP1045] |  |  | 207 nM | C (A compound having a KD ratio of 0.1 or more and less than 3 is denoted as C) | C (A compound having a KD ratio of 0.1 or more and less than 3 is denoted as C) |  | 
